{
  "source": "EPA's ToxValDB 9.5",
  "key": {"[1]": {"test_system": "Rattus norvegicus", "conditions": "for LD50 / LC50: acute"}, "[2]": {"test_system": "Oryctolagus sp.", "conditions": "dermal; for LD50: acute"}, "[3]": {"test_system": "Mus musculus", "conditions": "inhalation, CD1"}, "[4]": {"conditions": "reproduction developmental, duration: 5 days, generation: F0"}, "[5]": {"conditions": "chronic, duration: 693 days, oral, diet, Sprague-Dawley"}, "[6]": {"conditions": "reproduction developmental, duration: 94 days, oral, diet, Sprague-Dawley, generation: F0"}, "[7]": {"conditions": "subchronic, duration: 13 weeks, oral, diet, Sprague-Dawley"}},
  "note": "Several values for one entry are separate records, joined by “and”; a condition that tells them apart may be missing. Equal entries are not always repeated.",
  "data": [
    {"smiles": "CC1COC(=O)O1", "note": "(configuration not stated) [Propylene carbonate]", "values": [
      {"measurement": "LD50", "setting": "[1]; oral, Sprague-Dawley", "value": "> 5000", "unit": "mg/kg"},
      {"measurement": "NOAEL", "setting": "[1]; developmental, duration: 6 days, oral, gavage, Sprague-Dawley", "value": 5000, "unit": "mg/kg-day"},
      {"measurement": "NOAEL", "setting": "[1]; reproduction developmental, duration: 13 weeks, oral, gavage, Sprague-Dawley, generation: F0", "value": 5000, "unit": "mg/kg-day"},
      {"measurement": "NOAEL", "setting": "[1]; reproduction developmental, duration: 13 weeks, oral, gavage, Sprague-Dawley, generation: F1", "value": 5000, "unit": "mg/kg-day"},
      {"measurement": "NOAEL", "setting": "[1]; reproduction developmental, duration: 13 weeks, oral, gavage, Sprague-Dawley, generation: F2", "value": 5000, "unit": "mg/kg-day"},
      {"measurement": "NOAEL", "setting": "[1]; reproduction developmental, duration: 93 days, inhalation, generation: F0", "value": 1000, "unit": "mg/m3"},
      {"measurement": "NOAEL", "setting": "[1]; reproduction developmental, duration: 93 days, inhalation, generation: F1", "value": 1000, "unit": "mg/m3"},
      {"measurement": "NOAEL", "setting": "[1]; reproduction developmental, duration: 93 days, inhalation, generation: F2", "value": 1000, "unit": "mg/m3"},
      {"measurement": "NOAEL", "setting": "[1]; subchronic, duration: 90 days, oral, gavage, Sprague-Dawley", "value": 5000, "unit": "mg/kg-day"},
      {"measurement": "LD50", "setting": "[2]; occlusive, New Zealand", "value": "> 3000", "unit": "mg/kg"}
    ]},
    {"smiles": "c1ccc(OP(Oc2ccccc2)Oc2ccccc2)cc1", "note": "[Triphenyl phosphite]", "values": [
      {"measurement": "LC50", "setting": "[1]; Inhalation, Sherman Wistar", "value": "> 6.7", "unit": "µg/mL"},
      {"measurement": "LD50", "setting": "[1]; oral, gavage, Sherman Wistar", "value": 1590, "unit": "mg/kg"},
      {"measurement": "NOAEL", "setting": "[1]; reproduction developmental, duration: 16 weeks, oral, gavage, Sprague-Dawley, generation: F0", "value": 15, "unit": "mg/kg-day"},
      {"measurement": "NOAEL", "setting": "[1]; reproduction developmental, duration: 16 weeks, oral, gavage, Sprague-Dawley, generation: F1", "value": 15, "unit": "mg/kg-day"},
      {"measurement": "LD50", "setting": "[2]; New Zealand", "value": "≥ 2000 mg/kg and ≤ 5000 mg/kg"}
    ]},
    {"smiles": "O=c1n(CC2CO2)c(=O)n(CC2CO2)c(=O)n1CC1CO1", "note": "(configuration not stated) [Tris(2,3-epoxypropyl)isocyanurate]", "values": [
      {"measurement": "LC50", "setting": "[3]; acute, particle", "value": 2, "unit": "µg/mL"},
      {"measurement": "LOAEL", "setting": "[3]; [4]", "value": "> 8", "unit": "mg/m3"},
      {"measurement": "NOAEL", "setting": "[3]; [4]", "value": "> 8", "unit": "mg/m3"},
      {"measurement": "LC50", "setting": "[1]; Inhalation, TIF: RAIF (SPF)", "value": "> 300", "unit": "mg/m3"},
      {"measurement": "LC50", "setting": "[1]; Inhalation, Tif.RAIF (SPF)", "value": 650, "unit": "mg/m3"},
      {"measurement": "LD50", "setting": "[1]; dermal, Sprague-Dawley", "value": "> 3100", "unit": "mg/kg"},
      {"measurement": "LD50", "setting": "[1]; dermal, semiocclusive, Sprague-Dawley", "value": "> 2000", "unit": "mg/kg"},
      {"measurement": "LD50", "setting": "[1]; dermal, semiocclusive, TIF. RAIF (SPF)", "value": "> 2000", "unit": "mg/kg"},
      {"measurement": "LC50", "setting": "[1]; inhalation, particle, Wistar", "value": "> 4.16", "unit": "µg/mL"},
      {"measurement": "LD50", "setting": "[1]; oral, gavage, Sprague-Dawley", "value": 447, "unit": "mg/kg"},
      {"measurement": "LD50", "setting": "[1]; oral, gavage, TIF: RAIF (SPF)", "value": 305, "unit": "mg/kg"},
      {"measurement": "LOAEL", "setting": "[1]; [5]", "value": "> 100", "unit": "mg/kg-day"},
      {"measurement": "NOAEL", "setting": "[1]; [5]", "value": 100, "unit": "mg/kg-day"},
      {"measurement": "LOAEL", "setting": "[1]; [6]", "value": "> 100", "unit": "mg/kg-day"},
      {"measurement": "NOAEL", "setting": "[1]; [6]", "value": 30, "unit": "mg/kg-day"},
      {"measurement": "LOAEL", "setting": "[1]; [7]", "value": "> 100", "unit": "mg/kg-day"},
      {"measurement": "NOAEL", "setting": "[1]; [7]", "value": 30, "unit": "mg/kg-day"}
    ]},
    {"smiles": "CCCCC(CC)C(=O)[O-].CCCCC(CC)C(=O)[O-].[Zn+2]", "note": "(configuration not stated) [Zinc 2-ethylhexoate]", "values": [
      {"measurement": "LC50", "setting": "[1]; Inhalation", "value": "> 23.2", "unit": "µg/mL"},
      {"measurement": "LD50", "setting": "[1]; oral", "value": "≥ 3550 mg/kg and ≤ 3700 mg/kg"},
      {"measurement": "LD50", "setting": "[1]; oral, gavage", "value": "≥ 3550 mg/kg and ≤ 3700 mg/kg"},
      {"measurement": "NOAEL", "setting": "[1]; short-term, duration: 7 days, oral, gavage, Sprague-Dawley", "value": 1000, "unit": "mg/kg-day"},
      {"measurement": "LD50", "setting": "[2]; occlusive", "value": "> 5000", "unit": "mg/kg"}
    ]},
    {"smiles": "O=C([O-])c1ccc2ccccc2c1.O=C([O-])c1ccc2ccccc2c1.[Zn+2]", "note": "[Zinc naphthenate]", "values": [
      {"measurement": "LD50", "setting": "[1]; oral, gavage", "value": "> 6000", "unit": "mg/kg"},
      {"measurement": "LD50", "setting": "[1]; oral, gavage, Sprague-Dawley", "value": "> 5000", "unit": "mg/kg"},
      {"measurement": "LOAEL", "setting": "[1]; developmental, duration: 10 days, oral, gavage, Sprague-Dawley", "value": 938, "unit": "mg/kg-day"},
      {"measurement": "LOAEL", "setting": "[1]; reproduction developmental, duration: 10 days, oral, gavage, F, Sprague-Dawley", "value": "500 mg/kg-day and 938 mg/kg-day"},
      {"measurement": "LOAEL", "setting": "[2]; subchronic, duration: 90 days, semiocclusive, New Zealand", "value": 1000, "unit": "mg/kg-day"}
    ]}
  ]
}
